Assay [1] deals with T1, maize endosperm AGPase, evolutionary mutant SH2-E (Zea mays, UniProt P55241+Q84PF5).
T1 construct: data of Boehlein et al., 2013
As to conditions: read-out: G-1-P Km, absence of 3-PGA; cited from earlier work.

Assay [2] concerns maize endosperm AGPase, evolutionary mutant SH2-E (SH2E). As to conditions: cited from earlier work; for Ki: read-out: Ki (Pi).
Assay [3] concerns maize endosperm AGPase, wild type. The conditions noted are these: cited from earlier work.
Assay [4] concerns the target T2, maize endosperm AGPase variant T142F (Zea mays, UniProt P55241+Q84PF5, T142F).
T2 construct: data of Boehlein et al., 2013
T2 sequence (P55241 46-516 T142F): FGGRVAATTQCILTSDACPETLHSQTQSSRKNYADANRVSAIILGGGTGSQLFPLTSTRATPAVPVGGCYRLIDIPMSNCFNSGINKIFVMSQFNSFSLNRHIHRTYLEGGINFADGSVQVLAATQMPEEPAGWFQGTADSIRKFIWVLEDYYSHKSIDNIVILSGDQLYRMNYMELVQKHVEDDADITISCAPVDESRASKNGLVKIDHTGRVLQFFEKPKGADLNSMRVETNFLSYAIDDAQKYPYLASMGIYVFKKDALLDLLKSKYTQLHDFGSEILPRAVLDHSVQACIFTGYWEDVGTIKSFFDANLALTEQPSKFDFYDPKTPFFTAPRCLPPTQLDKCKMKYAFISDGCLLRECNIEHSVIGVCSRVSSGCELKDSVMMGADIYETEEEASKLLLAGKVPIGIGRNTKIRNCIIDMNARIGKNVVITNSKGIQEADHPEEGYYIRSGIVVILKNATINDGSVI
T2 sequence (Q84PF5 1-474): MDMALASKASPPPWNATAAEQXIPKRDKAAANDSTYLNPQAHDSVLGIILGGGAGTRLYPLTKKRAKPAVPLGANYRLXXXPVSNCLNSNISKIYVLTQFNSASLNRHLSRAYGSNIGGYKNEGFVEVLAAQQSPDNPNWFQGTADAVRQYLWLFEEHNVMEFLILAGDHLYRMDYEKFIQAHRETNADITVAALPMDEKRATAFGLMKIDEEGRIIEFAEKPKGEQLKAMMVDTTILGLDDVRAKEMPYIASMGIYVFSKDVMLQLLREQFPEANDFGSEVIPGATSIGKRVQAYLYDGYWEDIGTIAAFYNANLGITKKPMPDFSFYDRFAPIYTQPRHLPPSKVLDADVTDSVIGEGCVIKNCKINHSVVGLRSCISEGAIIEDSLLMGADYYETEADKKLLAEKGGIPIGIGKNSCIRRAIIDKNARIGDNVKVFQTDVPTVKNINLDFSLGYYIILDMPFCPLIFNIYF
As to conditions: read-out: G-1-P Km, absence of 3-PGA; cited from earlier work.

The target in assay [5] is T1, maize endosperm AGPase, evolutionary mutant SH2-E. As to the kind of experiment: Apparent kinetic constants with 3-PGA, 37° C., SH2-E. As to conditions: read-out: G-1-P Km. Type of assay: biochemical. How it is done: (§1) An endpoint assay was used to determine the rate of the AGPase reaction by coupling the formation of PPi to a decrease in NADH concentration (Boehlein et al., 2008). […] The Michaelis constants (Km) were obtained by varying one substrate in the presence of saturating concentrations of the second substrate. The activation constants were obtained by varying the activator at fixed levels of both substrates. All reactions were performed at 37° C. and mixes were prewarmed before starting the reaction with enzyme. […] The absorbance at 340 nm was monitored after 30 min and the amount of PPi produced was determined from a standard curve using PPi in complete reaction mixtures lacking AGPase. Blank samples contained complete reaction mixtures without enzyme and the change in absorbance between the blank and the reaction was used to calculate the amount of PPi produced. […]
(§2) The apparent Michaelis constant and maximum velocity of each reaction was calculated from a V vs. S plots using nonlinear regression analysis and the following equation, v=VmaxS/(Km+S), where v is the measured velocity, Vmax is the maximum velocity, S is the substrate concentration. […]
(§3) Each mutant, comprising 1, 2, 3 or 4 changes, was grown in a large scale culture, expressed and purified according to standard procedures (Boehlein et al., 2005). […] Next, the activation constant, Ka, was determined for each of the mutant enzymes. […]

Assay [6] has as its system maize endosperm AGPase, wild type (Maize-wt). As to conditions: read-out: G-1-P Km, absence of 3-PGA; cited from earlier work.
Assay [7] concerns maize endosperm AGPase, evolutionary mutant SH2-E (SH2E). The conditions noted are these: cited from earlier work; for Ki: presence of 3-PGA, NC, read-out: Ki (Pi).
In assay [8] the test system is maize endosperm AGPase, wild type. The conditions noted are these: cited from earlier work. This is another data set of the same source.
Assay [9] concerns maize endosperm AGPase, heat stable ISM mutants. Nature of the assay: Apparent kinetic constants with 3-PGA, 37° C., ISM mutants collectively. Type of assay: biochemical, Zea mays. Here is the method:
An endpoint assay was used to determine the rate of the AGPase reaction by coupling the formation of PPi to a decrease in NADH concentration (Boehlein et al., 2008). […] The Michaelis constants (Km) were obtained by varying one substrate in the presence of saturating concentrations of the second substrate. The activation constants were obtained by varying the activator at fixed levels of both substrates. All reactions were performed at 37° C. and mixes were prewarmed before starting the reaction with enzyme. Reactions were terminated by boiling the reaction mixes for 2 minutes followed by development with 200 μl of coupling reagent (25 mM imidazole pH 7.4, 4 mM MgCl2, 1 mM EDTA, 0.2 mM NADH, 0.725 U aldolase, 0.4 U triose phosphate isomerase, 0.6 U glycerophosphate dehydrogenase, 1 mM fructose 6-phosphate and 0.8 μg purified PPi-PFK per reaction). The absorbance at 340 nm was monitored after 30 min and the amount of PPi produced was determined from a standard curve using PPi in complete reaction mixtures lacking AGPase. Blank samples contained complete reaction mixtures without enzyme and the change in absorbance between the blank and the reaction was used to calculate the amount of PPi produced. Reactions were linear with time and enzyme concentration.
The apparent Michaelis constant and maximum velocity of each reaction was calculated from a V vs. S plots using nonlinear regression analysis and the following equation, v=VmaxS/(Km+S), where v is the measured velocity, Vmax is the maximum velocity, S is the substrate concentration. The activation constant (Ka) was obtained using the following equation: V=Vmin+Vmax*(X)/(Ka+X), where Vmin is the velocity in the absence of activator and Vmax is the change in activity from Vmin to the total velocity. X is the activator concentration, Ka is the activation constant. All linear regression was carried out using the software program Prism (Graph Pad, San Diego Calif.).
Each mutant, comprising 1, 2, 3 or 4 changes, was grown in a large scale culture, expressed and purified according to standard procedures (Boehlein et al., 2005). […] Thus, the effects of these mutations on the kinetic constants are minimal. Next, the activation constant, Ka, was determined for each of the mutant enzymes. Here a decrease in the Ka for each of the mutants of approximately 3-6 fold was observed. This property appears to stem from the D161G change, and includes all enzymes which carry this mutation (Table 8). To be certain the effect is the result of the D161G mutation, and not the result of other single mutant changes, Q96R and Q96G were purified and characterized.

Assay [10] deals with T2, maize endosperm AGPase variant T142F. As to the kind of experiment: Apparent kinetic constants with 3-PGA, 37° C., T142F. Type of assay: biochemical. Here is the method:
as §1, §2, §3

In assay [11] the target is T3, maize endosperm AGPase, large subunit variant GGR (Q96G, D161G, A443R; numbering of SEQ ID NO: 20) (Zea mays, UniProt P55241+Q84PF5, A443R/D161G/Q96G).
T3 sequence (P55241 46-516 A443R/D161G/Q96G): T2 sequence (P55241 46-516 T142F) with Q51G, F97T, D116G, A398R
T3 sequence (Q84PF5 1-474): T2 sequence (Q84PF5 1-474)
As to the kind of experiment: Pi inhibition in the presence of 3-PGA, GGR. Type of assay: biochemical.
Text: Inhibition by Pi was then followed in the presence of the activator 3-PGA.

For assay [12], the target named is T3, maize endosperm AGPase, large subunit variant GGR (Q96G, D161G, A443R; numbering of SEQ ID NO: 20). Nature of the assay: Pi inhibition in the absence of 3-PGA, GGR. Type of assay: biochemical. Here is the method:
Next, the kinetics of the GGR mutant were further investigated by following Pi inhibition in the presence and absence of 3-PGA. Experiments were performed by keeping both substrates constant and non-saturating at several fixed concentrations of Pi.
A similar examination of the Pi inhibition was then followed with GGR in the absence of 3-PGA.

Where [13] appears, read: absence of 3-PGA, varied substrate G-1-P.
[14] abbreviates: Maize wt, presence of 3-PGA, varied substrate ATP.
The mark [15] stands for this setting: Maize wt, presence of 3-PGA, varied substrate G-1-P.
Setting [16] is: Maize wt, absence of 3-PGA, varied substrate ATP.
Setting [17] is: Maize wt, absence of 3-PGA, varied substrate G-1-P.

The text below walks through data of patent publication US9650616B2, “Methods for increasing grain yield” (University of Florida Research Foundation, Inc., priority 2014, dated 2017).

Numbering of substitutions follows the chain as printed. “And” between values parts separate entries of the source, which are not always exact repeats. Identical values can stand only once. Like-named read-outs stand apart in the source and are kept apart here.

T1 sequence (P55241 46-516, change not shown, one chain of several): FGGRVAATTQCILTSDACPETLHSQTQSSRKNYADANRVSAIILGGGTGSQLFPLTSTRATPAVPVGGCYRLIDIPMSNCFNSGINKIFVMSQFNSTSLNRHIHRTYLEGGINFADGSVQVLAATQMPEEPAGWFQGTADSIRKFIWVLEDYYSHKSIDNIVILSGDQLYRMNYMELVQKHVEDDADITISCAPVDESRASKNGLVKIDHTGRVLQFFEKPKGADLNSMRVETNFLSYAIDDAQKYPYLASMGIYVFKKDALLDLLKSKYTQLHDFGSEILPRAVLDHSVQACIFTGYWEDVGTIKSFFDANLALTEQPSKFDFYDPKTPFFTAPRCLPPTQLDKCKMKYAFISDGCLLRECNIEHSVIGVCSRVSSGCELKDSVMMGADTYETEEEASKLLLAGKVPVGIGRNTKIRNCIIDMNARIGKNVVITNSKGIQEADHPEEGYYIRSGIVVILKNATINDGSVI

Take `O=P(O)(O)O[C@H]1O[C@H](CO)[C@@H](O)[C@H](O)[C@H]1O` [G-1-P, glucose-1-phosphate]: the Km was 30 µM in [1]; 200 µM in assay [2] (read-out: Km (G-1-P), absence of 3-PGA, G-1-P varied, Pi inhibition); 91 µM in assay [3] (read-out: Km (G-1-P), Maize wt, presence of 3-PGA, G-1-P varied, Pi inhibition, P-MT); 90 µM in [4]; 30 µM in assay [5]; 2800 µM in assay [6]. Besides, the Km was 63 µM in assay [7] (read-out: Km (G-1-P), presence of 3-PGA, G-1-P varied, Pi inhibition, NC); 22200 µM in [8] (read-out: Km (G-1-P), Maize wt, absence of 3-PGA, G-1-P varied, Pi inhibition, P-MT); above 20000 µM in [8] (wt maize AGPase, absence of activator, Pi inhibition assay, read-out: Km for both substrates). In addition, the “largest variation in Km” value in [9] (mutants versus wt maize, in the presence of 3-PGA) was “approximately two-fold”.
As for `O=C(O)[C@H](O)COP(=O)(O)O` [3-PGA], the “Ka for 3-PGA” value in assay [10] is listed as “decreased Ka”. Besides, in [9] (heat stable mutant), the “affinity for the activator, 3-PGA” value is reported as “increased affinity”. The “decrease in the Ka for 3-PGA” value in assay [9] (mutants carrying D161G versus wt maize) is reported as 3-6 fold.
Take `O=P(O)(O)O` [Pi, phosphate]: the Ki is 10 to 20 mM in [11] (in the presence of 3-PGA, read-out: Ki for Pi); 10.7 mM in [11] (presence of 3-PGA, varied substrate ATP, L-MT, read-out: Ki (Pi)); 20.7 mM in assay [11] (presence of 3-PGA, varied substrate G-1-P, NC, read-out: Ki (Pi)); 50 to 100 mM in assay [12] (read-out: Ki for Pi with respect to both substrates); 52.7 mM in assay [12] (varied substrate G-1-P, read-out: Ki (Pi)); 20.9 mM in assay [2] (absence of 3-PGA, varied substrate ATP, NC). In addition, the Ki is 0.055 mM in assay [2] (setting [13]); 0.37 mM in [3] (Maize wt, presence of 3-PGA, varied substrate ATP, P-MT, read-out: Ki (Pi)); 1 mM in assay [3] (Maize wt, presence of 3-PGA, varied substrate G-1-P, P-MT, read-out: Ki (Pi)); 0.5 to 1 mM in assay [3] (wt AGPase, in the presence of 3-PGA, read-out: Ki for Pi); 7.8 mM in assay [7] (varied substrate ATP); 6.62 mM in assay [7] (varied substrate G-1-P). In addition, the Ki in assay [8] (Maize wt, absence of 3-PGA, varied substrate ATP, P-MT, read-out: Ki (Pi)) was 3.4 mM; in assay [8] (Maize wt, absence of 3-PGA, varied substrate G-1-P, P-MT, read-out: Ki (Pi)), 5.1 mM; in assay [8] (wt maize AGPase, absence of activator, read-out: Ki for Pi), 3 to 5 mM. For the same molecule, the “α (Pi interaction factor)” value is 2.5 and 2.5 +/− 0.66 in [11] (presence of 3-PGA, varied substrate ATP); 0.85 +/− 0.17 in assay [2] (setting [13]); 4.61 +/− 0.70 in assay [3] (setting [14]); 0.90 +/− 0.012 in [3] (setting [15]); 0.063 +/− 0.034 in [8] (setting [16]); 0.095 +/− 0.065 in assay [8] (setting [17]). The “Ki for Pi relative to normal concentration of Pi in maize endosperm (~6.5 mM)” value in assay [12] is recorded as 10-20 times. In addition, the “β (partiality of Pi inhibition)” value in [2] (setting [13]) is given as 0.44 +/− 0.03; in assay [3] (setting [14]), 0.83 +/− 0.037; in assay [3] (setting [15]), 0.52 +/− 0.023; in assay [8] (setting [16]), 0.52 +/− 0.17; in assay [8] (setting [17]) it was 0.92 +/− 0.31.
